Results taken from US20220152044A1, “TREATMENT OF INFLAMMATORY DISEASES OF THE CENTRAL NERVOUS SYSTEM” (PALMAYA PTY LTD, priority 2019, published 2022).

Columns and labels:
[1] = tested on: craving for nicotine; assay: Nicotine craving and use in patients; assay type: in vivo, human; conditions: flumazenil by infusion or nasally/sublingually 50 to 200 micrograms per dose
[2] = tested on: alcohol use; assay: Return to alcohol use on naltrexone with or without flumazenil; assay type: in vivo, human; conditions: naltrexone 2 ng/ml; flumazenil 40 to 160 μg/hour where combined
Procedure: We have observed that in this group of patients complain of increased irritability, increased anxiety, increased sleep disturbance, and/or increased aggressive behaviour. However, when administered together with flumazenil at a concentration of 40 to 160 μg/hour, these systems are controlled.
For patients with a history of relapse on naltrexone implants, the use of sustained release flumazenil with infusions initially and with a series of sustained release flumazenil implants delivering 40-160 μg/hour to sustain a concentration of 0.5 ng/ml or more appear to be useful in controlling the return to alcohol use. For example, we have shown that in women with a history of irritability and return to drinking in the premenstrual days, this treatment with sustained release flumazenil in combination with naltrexone, reduces craving and relapse patterns.

[3] = tested on: cannabis withdrawal; assay: Withdrawal from cannabis with high THC concentrations; assay type: in vivo, human; conditions: naltrexone implants, plasma concentration 0.5 ng/ml to 10 ng/ml or more
Source text: Cannabis use has changed in recent years with a significant cohort describing high tetrahydrocannabinol (THC) concentrations in potent strains which are cultivated for their high THC content. In the patient group using these high concentrations of THC, we have noted that a group of patients give a clear cut history of extreme nausea, vomiting, anxiety changing to serious paranoid thoughts and delusions followed by psychosis over the first 3-5 days of ceasing drug use.
In a severe patient population, ondansetron may be given every 6-8 hours to assist in reducing the nausea and associated anxiety symptoms.
Our results indicated a clear reduction in anxiety, and paranoid symptoms, allowing patients who otherwise would be unable to cope with the symptoms, to cease cannabis use.

[4] = tested on: amphetamine use; assay: Amphetamine / methamphetamine craving and withdrawal; assay type: in vivo, human; conditions: naltrexone implants, plasma concentration maintained at 2 ng/ml or higher
Procedure: In those patients that return 2-3 weeks with extreme anxiety and a desire to return to amphetamine use, the commencement of flumazenil infusions followed by a flumazenil implant that sustains a plasma concentration of flumazenil at 0.5-2 ng/ml or more decreases the cravings, including a decrease in the desire for amphetamines and allows reduction f irritability and aggression.

[5] = tested on: cocaine use; assay: Cocaine craving in patients with naltrexone implants; assay type: in vivo, human; conditions: approximately 15 patients, reported by most
Source text: Approximately 15 […] patients have presented specifically for the control of their cocaine use using naltrexone implants. Approximately a third of these patients were from the United Kingdom, a third from Sydney, Australia and a third from Perth, Australia. This group of patients reported a reduction in craving with naltrexone implants, and most reported a reduction in cravings for 6-12 months after receiving the implant. Approximately half returned for repeat implants based on their observations that the naltrexone implant controlled their cravings.

[6] = tested on: PTSD; assay: PTSD patients treated with flumazenil and/or naltrexone; assay type: in vivo, human; conditions: severe case, had occurred for 6 years; naltrexone implant inserted
Source text: Post Trauma Stress Disorder (PTSD), causes dysregulation of anxiety control that may damage the GABAA system and present as hypervigilance, sleep disturbance, anxiety, gastrointestinal (GIT) or bladder symptoms. We have been using flumazenil for more than 8 years to treat patients presenting complex. The infusions and implants give relief to the anxiety, sleep disturbance and the GIT symptoms as well as urinary symptoms in many well established PTSD patients.
Sleep remained normal following this. The profound recovery of sleep in patients with PTSD using flumazenil and naltrexone by continuous delivery has not previously been described.

[7] = tested on: HPA axis; assay: HPA axis in stressed animals; assay type: in vivo
Source text: For this reason the combination of sustained release naltrexone and sustained release flumazenil using injections, implants or infusions would be expected to limit neuro-inflammatory diseases and their symptoms.

What does the source list for `O=C1CC[C@@]2(O)[C@H]3Cc4ccc(O)c5c4[C@@]2(CCN3CC2CC2)[C@H]1O5` [naltrexone]?
craving for and use of nicotine [1]: reduced craving for nicotine; return to alcohol use [2]: return to drinking alcohol; cannabis craving and impulse control [3]: reduces the craving and improves impulse control; craving for amphetamine use [4]: significant reduction in craving; duration of reduction in cravings after receiving the implant [5]: 6-12 months; waking at 2 am with shouting and anxiety [6]: stopped immediately; return of the HPA axis to normal [7]: help return the HPA axis
